One test addresses T1, Mcl-1 (UniProt P97287+Q07820).
T1 construct: amino acid residues 152-189 of mouse Mcl-1 fused with amino acid residues 209-327 of; 8 x His (N); TEV site (N); made in house; host or cells: E. coli BL21(DE3)pLysS
As to the kind of experiment: Competitive fluorescence anisotropy (FA) assay, FITC-NoxaB displacement from Mcl-1. Type of test: binding. The procedure:
Fmoc, 9-fluorenylmethylcarbony. IC50 determined by non -linear regression of at least three experiments.
4. Fluorescence Anisotropy Binding Assay
Fluorescence anisotropy was carried out on a BMG Labtech clariostar microplate reader with a fluorescence anisotropy optic measuring at 482/530 nm. Low -binding, Corning 96 -well black plates were used and all reagents used in the assay were biological grade and purchased from Sigma Aldrich and Novabioche m. All solutions were made using MilliQ water .
Anisotropy values were automatically calculated using the following formula […]
Where r = anisotropy, l a = parallel emission light, lb = perpendicular emission light and I = total […]
KD was determined using GraphPad Prism Version 6.0 software, using the One Site – Total binding […]
Where Bmax is the maximum specific binding, KD is the equilibrium binding constant, and NS is the slope of nonspecific binding. […]
IC50 was determined using GraphPad Prism Version 6.0 software, using a four-parameter logistic model, according to precedent from Ottmann and co-workers.[5] Errors are the transformed greater extreme of the standard error. […]
For binding each well contained 10 µL of Mcl -1 protein in 10-fold dilutions (0.37 pM to 3.7 µM) […]
protein were dissolved in PBS: 0.05% Tween -20 buffer at pH 7.4. Reagents were incubated for 30 min at room temperature prior to reading. Bubbles were removed and 8 data points were generated.
Figure S 1: Fluorescence Anisotropy direct titration.
To confirm reproducibility of
(µ) and standard deviations (σ) were inputted into the following equation:
Inhibition screens were carried out using 10 nM Mcl -1, 5 nM fluorescently-tagged peptide and 100 µM of inhibitor. Compounds were dissolved in DMSO. […]
control (DMSO) were used to define the mini mum and maximum values and ensure the assay was […]
(1 picture or pasted object on this page, not shown here) […]
Bubbles were removed and 8 data points were generated. […]

A further test deals with MiaPaCa-2 cells. The test can be described thus: MTS cytotoxicity assay, MiaPaCa-2. Type of test: cell-based. As to conditions: 37 °C, triplicate, at least three experiments, errors = transformed greater extreme of standard error, read-out: MiaPaCa-2 cell growth inhibition IC50. The procedure: (§1) CUSTOM_[…] ("<1>=[N+]",("charge", 0, 2)) […]
(§2) CUSTOM_[…] ("<1>=[N]=[N]",("bond",1,(2,3))) […]
(§3) CUSTOM_[…] ("<1>([C]=[C])=[N][N]",("bond",1,(3,5))) […]
(§4) The MiaPaCa-2 cell line, BxPC-3 cell line and AsPC-1 cell line were purchased from the European Collection of Cell Cultures (ECACC, Porton Down, UK). MiaPaCa-2 cells were cultured in DMEM media with 2 mM L-glutamine, 100 U/mL penicillin, 100 µg/mL streptomycin and 10% FCS.
(§5) BxPC-3 cells and AsPC-1 cells were cultured in RPMI-1640 media containing 2 mM L-glutamine, 100 U/mL penicillin, 100 µg/mL streptomycin and 10% FCS. Cells were sub-cultured twice weekly and maintained at 37 °C and 5% CO2.
(§6) The anti-proliferative activity of the compounds studied was assessed by MTS assay (Promega) following the manufacturer’s instructions. Cells were seeded at 5 x 103 / 100 μL in a 96-well plate and left untreated or treated with DMSO (vehicle control), or compounds 1-4 (100 μM – […], in well concentration) in triplicate for 72 h at 37 °C with 5% CO2. Following this, MTS assay reagent was added to each well and the plates incubated for 4 h at 37 °C with 5% CO2. The absorbance was measured at 492 nm using the BMG Labtech POLARstarOPTIMA microplate reader. […]
For orientation: Tetrazolium dyes change colour on reduction, which living cells bring about.

The next test deals with BxPC-3 cells. The test can be described thus: MTS cytotoxicity assay, BxPC-3. It is filed as cell-based. As to conditions: 37 °C, triplicate, at least three experiments, errors = transformed greater extreme of standard error, read-out: BxPC-3 cell growth inhibition IC50. As to the method: as §1, §2, §3, §4, §5, §6
Another test deals with AsPC-1 cells. The test can be described thus: MTS cytotoxicity assay, AsPC-1. It is filed as cell-based. As to conditions: 37 °C, triplicate, at least three experiments, errors = transformed greater extreme of standard error, read-out: AsPC-1 cell growth inhibition IC50. As to the method:
as §1, §2, §3, §4, §5, §6

[1] abbreviates: Table 2, inhibition of binding of 5 nM FITC-NoxaB to 10 nM Mcl-1, PBS, 0.05% Tween-20, pH 7.4, non-linear regression of at least three experiments, errors = transformed greater extreme of standard error, SEM, read-out: FA IC50.
The mark [2] stands for this setting: Table S2, binding inhibition of FITC-NoxaB to Mcl-1, small molecules not tested against cell lines, at least three experiments, errors = transformed greater extreme of standard error, SEM, read-out: FA IC50.
The mark [3] stands for this setting: Table S2, binding inhibition of FITC-NoxaB to Mcl-1, small molecules not tested against cell lines, at least three experiments, errors = transformed greater extreme of standard error, read-out: FA IC50.
[4] abbreviates: Table 1, inhibition of binding of 5 nM FITC-NoxaB to 10 nM Mcl-1, PBS, 0.05% Tween-20, pH 7.4, non-linear regression of at least three experiments, errors = transformed greater extreme of standard error, [b] <100 means <100 μM and >10 μM, accurate value not determined, read-out: FA IC50.
Setting [5] is: Table S1, binding inhibition of FITC-NoxaB to Mcl-1, * less than 100 µM and greater than 10 µM, accurate IC50 not determined, read-out: FA IC50.
Setting [6] is: Table 1, inhibition of binding of 5 nM FITC-NoxaB to 10 nM Mcl-1, PBS, 0.05% Tween-20, pH 7.4, non-linear regression of at least three experiments, errors = transformed greater extreme of standard error, [b] <100 means <100 μM and >10 μM, accurate value not determined, SEM, read-out: FA IC50.

Like-named read-outs stand apart in the source and are kept apart here. Peptide text beside a SMILES is read from it. * marks the point of attachment. X3 = O=C(Cn1cc(-c2ccc([N+](=O)[O-])cc2)nn1)*; X4 = O=C(Cn1cc(-c2c(O)ccc3ccccc23)nn1)*; X2 = COc1ccc(OC)c(-c2cn(CC(=O)*)nn2)c1; X1 = O=C(Cn1cc(-c2ccc(Cl)cc2Cl)nn1)* A value given as a limit tells only on which side of the number the result lay.

T1 sequence (P97287 152-189 limits assumed): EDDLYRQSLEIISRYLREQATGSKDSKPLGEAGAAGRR
T1 sequence (Q07820 209-327 limits assumed): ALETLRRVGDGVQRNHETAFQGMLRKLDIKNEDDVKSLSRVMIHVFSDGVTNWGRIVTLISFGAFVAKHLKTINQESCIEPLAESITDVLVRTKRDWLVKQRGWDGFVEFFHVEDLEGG

As to `CC[C@H](C)[C@H](NC(=O)[C@H](CCCNC(=N)N)NC(=O)[C@H](CCCNC(=N)N)NC(=O)[C@H](CC(C)C)NC(=O)[C@H](CCC(N)=O)NC(=O)[C@H](C)NC(=O)[C@H](C)NC(C)=O)C(=O)NCC(=O)N[C@@H](CC(=O)O)C(=O)N[C@@H](Cc1cn(Cc2ccccc2F)nn1)C(N)=O` [Compound 2], the IC50 on Mcl-1 (SEM, read-out: FA IC50) came to 0.4 ± 0.3 µM.
On the same count and under the same terms, then `CC[C@H](C)[C@H](NC(=O)[C@H](CCCNC(=N)N)NC(=O)[C@H](CCCNC(=N)N)NC(=O)[C@H](CC(C)C)NC(=O)[C@H](CCC(N)=O)NC(=O)[C@H](C)NC(=O)[C@H](C)NC(C)=O)C(=O)NCC(=O)N[C@@H](CC(=O)O)C(=O)N[C@@H](Cc1cn(Cc2ccccc2)nn1)C(N)=O` [Compound 3], with 0.7 ± 0.8 µM; and `CC[C@H](C)[C@H](NC(=O)[C@H](CCCNC(=N)N)NC(=O)[C@H](CCCNC(=N)N)NC(=O)[C@H](CC(C)C)NC(=O)[C@H](CCC(N)=O)NC(=O)[C@H](C)NC(=O)[C@H](C)NC(C)=O)C(=O)NCC(=O)N[C@@H](CC(=O)O)C(=O)N[C@@H](Cc1cn(CC(=O)O)nn1)C(N)=O` [Compound 4], with 5.8 ± 4.6 µM.
`COc1ccc(OC)c(-c2cn(CC(=O)N[C@@H](CCCCN)C(=O)N[C@H](C(=O)N[C@@H](CC(N)=O)C(=O)N[C@@H](CC(C)C)C(=O)N[C@@H](CCCNC(=N)N)C(=O)N[C@@H](CCC(N)=O)C(=O)N[C@@H](CCCCN)C(=O)N[C@@H](CC(C)C)C(=O)N[C@@H](CC(C)C)C(=O)N[C@@H](CC(N)=O)C(N)=O)C(C)C)nn2)c1` [Compound 9] (X2-KVNLRQKLLN-NH2): the IC50 on Mcl-1 (SEM, read-out: FA IC50) came to 0.1 ± 0.1 µM.
For the compound `CC(C)C[C@H](NC(=O)[C@H](CC(C)C)NC(=O)[C@H](CCCCN)NC(=O)[C@H](CCC(N)=O)NC(=O)[C@H](CCCNC(=N)N)NC(=O)[C@H](CC(C)C)NC(=O)[C@H](CC(N)=O)NC(=O)[C@@H](NC(=O)[C@H](CCCCN)NC(=O)Cn1cc(-c2ccc([N+](=O)[O-])cc2)nn1)C(C)C)C(=O)N[C@@H](CC(N)=O)C(N)=O` [Compound 11] (X3-KVNLRQKLLN-NH2), the IC50 on Mcl-1 (SEM, read-out: FA IC50) came to 3.5 ± 1.5 µM.
For the compound `CC(C)C[C@H](NC(=O)[C@H](CC(C)C)NC(=O)[C@H](CCCCN)NC(=O)[C@H](CCC(N)=O)NC(=O)[C@H](CCCNC(=N)N)NC(=O)[C@H](CC(C)C)NC(=O)[C@H](CC(N)=O)NC(=O)[C@@H](NC(=O)[C@H](CCCCN)NC(=O)Cn1cc(-c2c(O)ccc3ccccc23)nn1)C(C)C)C(=O)N[C@@H](CC(N)=O)C(N)=O` [Compound 13] (X4-KVNLRQKLLN-NH2), the IC50 at Mcl-1 (SEM, read-out: FA IC50) amounted to 8.2 ± 1.9 µM.
For the compound `CC(C)C[C@H](NC(=O)[C@H](CC(C)C)NC(=O)[C@H](CCCCN)NC(=O)[C@H](CCC(N)=O)NC(=O)[C@H](CCCNC(=N)N)NC(=O)[C@H](CC(C)C)NC(=O)[C@H](CC(N)=O)NC(=O)[C@@H](NC(=O)[C@H](CCCCN)NC(=O)Cn1cc(-c2ccc(Cl)cc2Cl)nn1)C(C)C)C(=O)N[C@@H](CC(N)=O)C(N)=O` [Compound 14] (X1-KVNLRQKLLN-NH2), the IC50 on Mcl-1 (SEM, read-out: FA IC50) is 8.3 ± 3.6 µM.
With `Fc1ccccc1Cn1cc(C2=CCCCC2)nn1` [Compound 19], the IC50 on Mcl-1 (setting [1]) is 0.217 ± 0.058 µM; in the test on MiaPaCa-2 cells (72 h), greater than 100 µM; with BxPC-3 cells (72 h, SEM) it was 21.6 ± 8.83 µM; with AsPC-1 cells (72 h) it was greater than 100 µM.
`C1=C(c2cn(Cc3ccccc3)nn2)CCCC1` [Compound 22, 1-benzyl-4-(cyclohex-1-en-1-yl)-1H-1,2,3-triazole]: the IC50 is 1.68 ± 0.694 µM at Mcl-1 (SEM, read-out: FA IC50); greater than 100 µM with MiaPaCa-2 cells (Homo sapiens, MIA PaCa-2, 72 h); greater than 100 µM with BxPC-3 cells (Homo sapiens, BXPC-3, 72 h); greater than 100 µM in the test on AsPC-1 cells (Homo sapiens, ASPC1, 72 h).
With `COC(=O)[C@H](Cc1cn(Cc2ccccc2C)nn1)NC(=O)OCC1c2ccccc2-c2ccccc21` [Compound 24, methyl (S)-2-((((9H-fluoren-9-yl)methoxy)carbonyl)amino)-3-(1-(2-methylbenzyl)-1H-1,2,3-triazol-4-yl)propanoate], the IC50 at Mcl-1 (setting [1]) came out at 2.21 ± 0.877 µM; with MiaPaCa-2 cells (72 h, SEM), 2.14 ± 0.56 µM; with BxPC-3 cells (72 h, SEM), 10.7 ± 2.72 µM; in the test with AsPC-1 cells (72 h, SEM) it was 2.28 ± 1.44 µM.
Regarding `CCc1ccc(-c2cn(CC(=O)O)nn2)cc1` [Compound S10], the IC50 at Mcl-1 (setting [2]) amounted to 0.497 ± 0.367 µM.
As for `O=C(O)Cn1cc(-c2ccc([N+](=O)[O-])cc2)nn1` [Compound S11], the IC50 on Mcl-1 (setting [2]) stood at 0.561 ± 0.13 µM.
On the same count and under the same terms, then `Cc1ccc(-c2cn(CC(=O)O)nn2)c(C)c1` [Compound S12], with 0.766 ± 0.484 µM; and `CCOc1ccc(-c2cn(CC(=O)O)nn2)cc1` [Compound S13], with 1.32 ± 1.1 µM; and `Fc1ccccc1Cn1cc(-c2ccccc2Cl)nn1` [Compound S14], with 1.37 ± 0.938 µM.
Turning to `CCC(C)c1cn(Cc2ccccc2)nn1` (stereo not drawn) [Compound S15], the IC50 at Mcl-1 (setting [2]) turned out to be 3.31 ± 0.488 µM.
On the same count and under the same terms, then `COC(=O)[C@H](Cc1cn(CC(=O)O)nn1)NC(=O)OCC1c2ccccc2-c2ccccc21` [Compound S16], with 5.28 ± 1.69 µM.
As for `COC(=O)[C@H](Cc1cn(Cc2ccc(Br)cc2)nn1)NC(=O)OCC1c2ccccc2-c2ccccc21` [Compound S17], the IC50 on Mcl-1 (setting [3]) was greater than 100 µM.
With `CCCCCCCc1cn(C23CC4CC(CC(C4)C2)C3)nn1` [Compound S18], the IC50 on Mcl-1 (setting [3]) is greater than 100 µM.
On the same count and under the same terms, the figure for `CCCCCCCc1cn(Cc2ccccc2F)nn1` [Compound S19] is greater than 100 µM.
As for AAQLRRIGD [Compound 5], the IC50 on Mcl-1 (setting [4]) was less than 100 µM.
Turning to AAQLRRIGD [Compound S1], the IC50 on Mcl-1 (setting [5]) is less than 100 µM.
On to KVNLRQKLLN [Compound 10], for which the IC50 at Mcl-1 (setting [6]) amounted to 1.2 µM.
Turning to KVNLRQKLLN [Compound 12], the IC50 on Mcl-1 (setting [6]) was 4.3 ± 0.9 µM.
For KVNLRQKLLN [Compound 15], at Mcl-1 (setting [4]), the IC50 was less than 100 µM.
As for KVNLRQKLLN [Compound S2], on Mcl-1 (setting [5]), the IC50 is less than 100 µM.
Take “extended NoxaB peptide: the two NoxaB peptide fragments clicked together by CuAAC (AAQLRRIGDXKVNLRQKLLN; N-terminal acetyl)”: in the test with Mcl-1 (5 nM FITC-NoxaB, 10 nM Mcl-1, read-out: IC50 (competitive FA assay, Mcl-1)), the half-inhibitory concentration (IC50) was 7.23 ± 0.88 µM.

What is called IC50 is the concentration at which inhibition is half-maximal.
